# Tests used:
# [1] = tested on: MG63 human osteosarcoma cells; experiment: IP formation in MG63 human osteosarcoma cells (endogenous OGR1 mRNA); type: cell-based
# OGR1 [2] = biological target: T1, OGR1 (Homo sapiens, UniProt Q15743); experiment: Inositol phosphate (IP) formation assay, cells expressing OGR1; type: cell-based; conditions: for Inhibition of OGR1-dependent IP formation: stimulated at pH 6.9, micromolar concentrations
# T1 construct: His; expressed in transfected cells
# Target sequence in this assay (Q15743 whole entry): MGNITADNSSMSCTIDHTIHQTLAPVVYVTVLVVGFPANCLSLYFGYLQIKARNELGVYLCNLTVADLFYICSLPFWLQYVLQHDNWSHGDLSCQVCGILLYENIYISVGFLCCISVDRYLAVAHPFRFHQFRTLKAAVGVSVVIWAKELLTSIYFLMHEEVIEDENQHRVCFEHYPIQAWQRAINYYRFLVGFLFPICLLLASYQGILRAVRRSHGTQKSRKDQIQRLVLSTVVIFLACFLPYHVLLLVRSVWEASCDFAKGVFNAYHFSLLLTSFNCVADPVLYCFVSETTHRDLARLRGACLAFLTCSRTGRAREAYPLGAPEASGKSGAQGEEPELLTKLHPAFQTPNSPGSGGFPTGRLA
# [3] = tested on: thrombin-stimulated IP formation (endogenous receptors in CCL39 cells); experiment: Thrombin-stimulated IP formation in CCL39 cells; type: cell-based, hamster; conditions: for Effect on thrombin-stimulated IP formation: control CCL39 cells
# Human TDAG8 [4] = biological target: T2, Human TDAG8 (Homo sapiens, UniProt Q8IYL9); experiment: cAMP formation assay, TDAG8; type: cell-based; conditions: TDAG8
# T2 construct: His; expressed in transfected cells; host or cells: CCL39 (cAMP formation); CCL39 CRE-luc (luciferase reporter)
# Experimental: (§1) Stable cell lines expressing TDAG8 are generated in either CCL39 cells or in CCL39 CRE-luc cells which stably express a cAMP-dependent luciferase reporter to detect changes in cAMP in response to ligand. Stable cell lines are generated In the above cell lines by transfecting the TDAG8 cDNA expression construct using Effectene (Qiagen, Basel, Switzerland) according to the manufacturers protocol. Transfected cells are selected in the presence of 400 μg/ml of G418. After 3 weeks of antibiotic selection, individual clones are picked and expanded for further analysis.
# Human GPR4 [5] = biological target: T3, Human GPR4 (Homo sapiens, UniProt P46093, E51Q/F19H/F93P/Q349E); experiment: cAMP formation assay, GPR4; type: cell-based
# T3 construct: Human GPR4 is amplified from genomic DNA using primers GPR4F and GPR4R; expressed in transfected cells; host or cells: HEK293 (transient)
# Experimental: (§2) Human GPR4 is amplified from genomic DNA using primers GPR4F and GPR4R (5′ CACC ATGGGCAACCACACGTGGGAGGGCTGC 3′ and 5′ TCATTGTGCTGGCGGCAGCATCTTCAGCTGCA 3′ respectively). The PCR reaction mixture contains 0.2 mM dNTPs, 1×PCR buffer containing 1.5 mM MgCl2, 0.5 Units Taq DNA polymerase, 40 pmol each primer and sterile water in a total volume of 50 μl. The template for this reaction is human genomic DNA (Promega, Southampton, UK). PCR is performed using a Biometra T3 Thermocycler using the following cycling conditions: Denaturation at 95° C. for 2 min followed by 35 cycles of denaturation at 95° C. for 15s, annealing at 60° C. for 15 s, and extension at 72° C. for 1 min. A final extension at 72° C. is performed for 7 min. The 1.1 kb PCR product is purified and cloned pcDNA3.1 DN5-His-TOPO (Invitrogen, Paisley, UK).
# Human GPR4 [6] = biological target: T4, Human GPR4 (Homo sapiens, UniProt P46093); experiment: cAMP formation assay, GPR4; type: cell-based; conditions: GPR4
# T4 construct: Human GPR4 is amplified from genomic DNA using primers GPR4F and GPR4R; expressed in transfected cells; host or cells: HEK293 (transient)
# Experimental: as §2
# [7] = tested on: forskolin-stimulated adenylyl cyclase; experiment: Forskolin-stimulated adenylyl cyclase in other cell systems; type: cell-based
# Human TDAG8 [8] = biological target: T5, Human TDAG8 (Homo sapiens, UniProt Q8IYL9, A43P/F130I/N97L/Q180E/W80T); experiment: cAMP formation assay, TDAG8; type: cell-based; conditions: CCL39 cells stably expressing the receptor; mean+/-sem, N=6
# T5 construct: His; expressed in transfected cells; host or cells: CCL39 (cAMP formation); CCL39 CRE-luc (luciferase reporter)
# Experimental: as §1
# Human TDAG8 [9] = biological target: T5, Human TDAG8; experiment: cAMP luciferase reporter assay, TDAG8 in CCL39 CRE-luc cells; type: cell-based; conditions: CCL39 CRE-luc cells stably expressing the receptor; mean+/-sem, N=7
# Experimental: as §1
# Cells co-expressing TDAG8 and a cAMP luciferase reporter, as described in Example 8, are plated at 10-20,000 cells per well in white 96 well plates. The day before performing the assay the medium is changed for serum-free DMEM and the cells are incubated overnight at 37° C. in the presence of 5% CO2. […] 100 μl of the appropriate HBS buffer containing the to be tested compound (e.g. from any in-house or commercially available compound library) are then added on the cells. […] Agonists in the assay produce an increase in luminescence whereas antagonists produce a decrease in the luminescence. E.g. antagonists are characterised in the assay by a decrease in luminescence signal compared to the no compound control and e.g. in acidic pH buffer at pH 6.8 or pH 7.0 or at half-maximal activation of human TDAG8. […]
# OGR1 [10] = biological target: T1, OGR1; experiment: Cytoplasmic calcium transients (Fluo-3, fluorescence-imaging plate reader), CCL39 cells transfected with OGR1; type: cell-based; conditions: shift of extracellular pH from pH 7.6; mean+/-sem, N=3
# Experimental: Method: Cytoplasmic calcium transients are recorded using the calcium indicator Fluo-3 and a fluorescence-imaging plate reader (Molecular Devices/BucherBiotech, Basel, Switzerland).
# CCL39 cells transfected with OGR1 are loaded with the acetoxymethylester of the dye (2 μg/ml) for 1 h at 37° C. in full medium containing 5 mM probenicide to inhibit the multidrug resistance transporter. […] To identify receptor antagonists, test compounds are added during the last 15 minutes of this incubation. After transfer to the reader a baseline is recorded (Fb), and cells are then stimulated by addition of an appropriate amount of stronger buffer (20 mM HEPES, pH 6), inducing acidification.
# Alternatively, test compounds are added at this stage to identify agonistic molecules. The fluorescence readout F is normalised calculating F′=(F−Fb)/Fb.
# Target sequence in this assay (Q15743 whole entry T18I/I19T): as the sequence (Q15743 whole entry) above, with T18I, I19T counted along it
# T5 sequence (Q8IYL9 whole entry A43P/W80T/N97L/F130I/Q180E): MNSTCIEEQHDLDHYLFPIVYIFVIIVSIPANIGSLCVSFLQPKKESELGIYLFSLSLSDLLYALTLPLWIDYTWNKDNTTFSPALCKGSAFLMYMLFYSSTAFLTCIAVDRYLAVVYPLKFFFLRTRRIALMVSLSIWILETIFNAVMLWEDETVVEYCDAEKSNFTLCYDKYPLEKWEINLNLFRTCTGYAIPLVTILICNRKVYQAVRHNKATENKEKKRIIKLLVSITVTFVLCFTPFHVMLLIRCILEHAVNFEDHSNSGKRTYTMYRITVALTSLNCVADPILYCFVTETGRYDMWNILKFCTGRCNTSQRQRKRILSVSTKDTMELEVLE
# T3 sequence (P46093 whole entry F19H/E51Q/F93P/Q349E): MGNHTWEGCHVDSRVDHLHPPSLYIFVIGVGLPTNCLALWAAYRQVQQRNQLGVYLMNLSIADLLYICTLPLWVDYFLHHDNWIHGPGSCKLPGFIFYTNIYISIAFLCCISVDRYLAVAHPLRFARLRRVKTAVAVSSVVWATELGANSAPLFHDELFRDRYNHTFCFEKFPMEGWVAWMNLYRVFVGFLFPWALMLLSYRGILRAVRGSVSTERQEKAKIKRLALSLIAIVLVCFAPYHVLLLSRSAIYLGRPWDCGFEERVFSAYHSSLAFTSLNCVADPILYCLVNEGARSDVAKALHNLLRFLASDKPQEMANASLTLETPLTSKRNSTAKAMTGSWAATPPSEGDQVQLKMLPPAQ
# T2 sequence (Q8IYL9 whole entry A43P/W80T/N97L/F130I/Q180E): as the sequence (Q8IYL9 whole entry A43P/W80T/N97L/F130I/Q180E) above
# T4 sequence (P46093 whole entry F19H/E51Q/F93P/Q349E): as the sequence (P46093 whole entry F19H/E51Q/F93P/Q349E) above
molecule,measurement,setting,value
[Cu+2] [Cu^2+],Effect on pH-stimulated IP formation,"[1]; PTX pretreatment, or micromolar concentrations of copper ions",inhibited
same,Inhibition of OGR1-dependent IP formation,OGR1 [2],strongly Inhibit
same,Effect on thrombin-stimulated IP formation,[3],without effect
CCCCCCCCCCCCC/C=C/[C@@H](O)[C@@H](N)CO[C@@H]1O[C@H](CO)[C@H](O)[C@H](O)[C@H]1O [Psychosine],Activation of cAMP formation on its own,Human TDAG8 [4],does not activate cAMP formation on its own
CCCCCCCCCCCCC/C=C/[C@@H](O)[C@@H](N)COP(=O)([O-])OCC[N+](C)(C)C [SPC],Effect on pH-dependent stimulation of cAMP formation,Human GPR4 [5]; GPR4,does not modulate pH-dependent stimulation
same,Activation of cAMP formation on its own,Human GPR4 [6],does not activate cAMP formation on its own
same,Effect on forskolin-stimulated adenylyl cyclase,[7],inhibiting forskolin-stimulated adenylyl cyclase
same,Effect on pH-dependent stimulation of IP formation,OGR1 [2]; CCL39 cells expressing OGR1,does not affect pH-dependent stimulation of IP formation
same,Stimulation of OGR1 (IP formation),OGR1 [2]; CCL39 cells expressing OGR1,does not stimulate the receptor
[Zn+2] [Zn^2+],Inhibition of OGR1-dependent IP formation,OGR1 [2],strongly Inhibit
same,Effect on thrombin-stimulated IP formation,[3],partial inhibition
[H+] [protons],Half-maximal activation of cAMP formation by TDAG8,Human TDAG8 [8],7.15+/−0.02 pH
same,Half-maximal activation of luciferase induction by human TDAG8,Human TDAG8 [9],7.28+/−0.02 pH
same,Half-maximal activation of cAMP formation by GPR4,"Human GPR4 [5]; transiently transfected HEK293 cells, mean+/-sem, N=6",7.55+/−0.02 pH
same,Halfmaximal activation of IP formation,"[1]; mean+/-sem, N=5",7.46+/−0.01 pH
same,Half-maximal activation of the receptor (IP formation),"OGR1 [2]; OGR1 expressed in CCL39 hamster fibroblasts, mean+/-sem, N=12, pH referenced to room temperature",7.48+/−0.04 pH
same,Hill coefficient of activation,"OGR1 [2]; OGR1 in CCL39 hamster fibroblasts, IP formation",> 2
same,Half-maximal activation of IP formation,"OGR1 [2]; transiently transfected HEK cells, mean+/-sem, N=4",7.38+/−0.04 pH
same,Half-maximal activation (intracellular calcium response),OGR1 [10],7.20+/−0.04 pH
"thrombin: bovine thrombin, activates endogenous receptors in CCL39 cells",pH modulation of the response to the receptor agonist (IP formation),[3]; range of pH 7-8,not positively modulated

# Source: US20070092527A1, “Proton-sensing g-protein coupled receptors and dna sequences thereof” (NOVARTIS AG, priority 2003, published 2007)
